Experimental data as given in patent US20250092065A1, “2-(INDAZOL-5-YL)-6-(PIPERIDIN-4-YL)-1,7-NAPHTHYRIDINE DERIVATIVES AND RELATED COMPOUNDS AS MODULATORS FOR SPLICING NUCLEIC ACIDS AND FOR THE TREATMENT OF PROLIFERATIVE DISEASES” (REMIX THERAPEUTICS INC., priority 2022, published 2025).
Like-named read-outs stand apart in the source and are kept apart here.

What was measured:
K562 cells = experiment: Cell Titer Glo 2.0 cell viability (toxicity) assay, K562; conditions: 500 cells/well, 72 hours
MYB = experiment: HiBiT protein abundance assay, MYB (K562 HiBiT knock-in); format: cell-based, human; conditions: HiBiT knock-in K562 cells, 24 hours, top dose 10 μM
In short: (§1)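 Tagged-protein levels were measured as HiBiT/LgBiT luminescence in lysed K562 knock-in cells exposed to serially diluted compound (up to 10 μM final) for 24 hours. A four-parameter logistic regression of control-normalized signal yielded the IC50.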

MYB mRNA = experiment: RT-qPCR splicing assay, MYB mRNA canonical (CJ) and alternative (AJ) junction; format: cell-based, human; conditions: Homo sapiens; for AC50: MYB alternative junction mRNA, read-out: MYB AJ (increase in AJ mRNA, AC50)
In short: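 Canonical and alternative-exon junction isoforms were quantified by RT-qPCR in cell lysates, with ΔCt against a housekeeper (GAPDH/GUSB/PPIA), then ΔΔCt vs DMSO, converted to 2^(−ΔΔCt) and percent response. K562 or A673 cells were exposed for 24 h to 11 concentrations (3-fold, top final 10 uM).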

HTT = experiment: HiBiT protein abundance assay, HTT (K562 HiBiT knock-in); format: cell-based, human; conditions: HiBiT knock-in K562 cells, 24 hours, top dose 10 μM
In short: as §1

Target C = experiment: HiBiT protein abundance assay, Target C (K562 HiBiT knock-in); format: cell-based, human; conditions: HiBiT knock-in K562 cells, 24 hours, top dose 10 μM
In short: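 K562 HiBiT knock-in cells (10000/well) were treated 24 h at 37° C with a 10-point 3-fold dilution series (top 10 μM final, ≤0.25% DMSO). HiBiT luminescence was read after lytic LgBiT detection. Percent response used unmodified K562 and DMSO-treated knock-in controls, and IC50 came from a four-parameter fit at 50% of untreated.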

[1] = MYB canonical junction mRNA, RT-qPCR, read-out: MYB CJ (decrease in CJ mRNA levels, IC50)
[2] = canonical junction qPCR panel, Table 4, read-out: MYB IC50 (decrease in CJ mRNA levels)

| SMILES | IC50 (MYB) [µM] | IC50 (MYB mRNA; [1]) [µM] | IC50 (MYB mRNA; [2]) [µM] | IC50 (HTT) [µM] | IC50 (Target C) [µM] | Effect of Exemplary Compounds on Cell Viability, K562 (K562 cells) | AC50 (MYB mRNA; RT-qPCR) [µM] |
| --- | --- | --- | --- | --- | --- | --- | --- |
| Cn1cc2cc(-c3ccc4nc([C@@H]5CCNC6(CC6)C5)ccc4n3)c(O)cc2n1 (single isomer, unassigned) [Compound 495] | < 0.1 | < 0.1 | < 0.1 | < 0.1 | < 0.1 | B (B represents 100-1000 nM) | < 0.1 |
| Cn1cc2cc(-c3ccc4nc([C@H]5CCNC6(CC6)C5)ccc4n3)c(O)cc2n1 (single isomer, unassigned) [Compound 496] | < 0.1 | 0.1 to 1 | 0.1 to 1 | < 0.1 | < 0.1 | B (B represents 100-1000 nM) | < 0.1 |
| Cc1nc2cc(O)c(-c3ccc4nc([C@H]5CCNC6(CC6)C5)ccc4n3)cc2o1 (single isomer, unassigned) [Compound 497] | < 0.1 | < 0.1 | < 0.1 | < 0.1 | < 0.1 | A (A represents <100 nM) | < 0.1 |
| Cc1nc2cc(O)c(-c3ccc4nc([C@@H]5CCNC6(CC6)C5)ccc4n3)cc2o1 (single isomer, unassigned) [Compound 498] | < 0.1 | 0.1 to 1 | 0.1 to 1 | < 0.1 | < 0.1 | B (B represents 100-1000 nM) | < 0.1 |
| CN[C@@H]1CCN(c2ccc3nc(-c4cn5cc(C)nc5c(C)c4O)ncc3n2)C1 (single isomer, unassigned) [Compound 504] | 0.1 to 1 | 0.1 to 1 | 0.1 to 1 | 0.1 to 1 | 0.1 to 1 | B (B represents 100-1000 nM) | 0.1 to 1 |
| Cn1cc2cc(-c3ncc4nc(C5CCNCC5)ccc4n3)c(O)c(F)c2n1 [Compound 155] | < 0.1 | < 0.1 | < 0.1 | < 0.1 | < 0.1 | A (A represents <100 nM) | < 0.1 |
| Cc1nc2cc(O)c(-c3ccc4nc(N5CCNC(C(C)(C)C)C5)ccc4n3)cc2o1 (centres unmarked) [Compound 492] | 0.1 to 1 | 1 to 10 | 1 to 10 | 0.1 to 1 | 1 to 10 | C (C represents 1000-9999 nM) | 0.1 to 1 |
| Cc1nc2cc(O)c(-c3ccc4nc(N5CC[C@@H](N(C)C(C)(C)C)C5)ccc4n3)cc2o1 [Compound 493] | < 0.1 | < 0.1 | < 0.1 | < 0.1 | < 0.1 | A (A represents <100 nM) | < 0.1 |
| Cc1c(O)c(-c2nc(C(=O)N(C)C)c3cc(N4CCNCC4)ccc3n2)cc2cn(C)nc12 [Compound 502, 2-(6-hydroxy-2,7-dimethylindazol-5-yl)-N,N-dimethyl-6-(piperazin-1-yl)quinazoline-4-carboxamide] | 1 to 10 | 1 to 10 | 1 to 10 | 1 to 10 | 1 to 10 | C (C represents 1000-9999 nM) | 1 to 10 |
| CCNC(=O)c1nc(-c2cc3cn(C)nc3c(C)c2O)nc2ccc(N3CCNCC3)cc12 [Compound 503, N-ethyl-2-(6-hydroxy-2,7-dimethylindazol-5-yl)-6-(piperazin-1-yl)quinazoline-4-carboxamide] | < 0.1 | < 0.1 | < 0.1 | < 0.1 | 0.1 to 1 | A (A represents <100 nM) | < 0.1 |
| CNC(=O)c1nc(-c2cc(F)c3nc(C)cn3c2)nc2ccc(N3CCNCC3)cc12 [Compound 505, 2-{8-fluoro-2-methylimidazo[1,2-a]pyridin-6-yl}-N-methyl-6-(piperazin-1-yl) quinazoline-4-carboxamide] | < 0.1 | < 0.1 | < 0.1 | 0.1 to 1 | 0.1 to 1 | B (B represents 100-1000 nM) | < 0.1 |

Now from value to molecule, other results behind:

| IC50 (MYB) [µM] | IC50 (MYB mRNA; [1]) [µM] | IC50 (MYB mRNA; [2]) [µM] | IC50 (HTT) [µM] | IC50 (Target C) [µM] | SMILES | Effect of Exemplary Compounds on Cell Viability, K562 (K562 cells) | AC50 (MYB mRNA; RT-qPCR) [µM] |
| --- | --- | --- | --- | --- | --- | --- | --- |
| < 0.1 | < 0.1 | < 0.1 | 0.1 to 1 | 0.1 to 1 | CNC(=O)c1nc(-c2cc3cn(C)nc3c(C)c2O)nc2ccc(N3CCN[C@@H](C)C3)cc12 (single isomer, unassigned) [Compound 512] | A (A represents <100 nM) | < 0.1 |
| < 0.1 | < 0.1 | < 0.1 | < 0.1 | 0.1 to 1 | CN[C@@H]1CCN(c2ccc3nc(-c4cc5cn(C)nc5c(C)c4O)ncc3c2)C1 (single isomer, unassigned) [Compound 521] | A (A represents <100 nM) | < 0.1 |
| < 0.1 | < 0.1 | < 0.1 | < 0.1 | 0.1 to 1 | CNC(=O)c1nc(-c2cc3cn(C)nc3c(C)c2O)nc2ccc(N3C[C@@H](C)N[C@H](C)C3)cc12 (single isomer, unassigned) [Compound 653] | A (A represents <100 nM) | < 0.1 |
| < 0.1 | 0.1 to 1 | 0.1 to 1 | 0.1 to 1 | 0.1 to 1 | Cc1c(O)c(-c2ncc3cc(N4C[C@@H](C)N[C@H](C)C4)ccc3n2)cc2cn(C)nc12 (single isomer, unassigned) [Compound 661] | B (B represents 100-1000 nM) | 0.1 to 1 |
| < 0.1 | < 0.1 | < 0.1 | 0.1 to 1 | 0.1 to 1 | CNC(=O)c1nc(-c2cc3cn(C)nc3c(F)c2O)nc2ccc(N3C[C@@H](C)N[C@H](C)C3)cc12 (single isomer, unassigned) [Compound 668] | A (A represents <100 nM) | < 0.1 |
| < 0.1 | < 0.1 | < 0.1 | 0.1 to 1 | 0.1 to 1 | CNC(=O)c1nc(-c2cc3cn(C)nc3c(F)c2O)nc2ccc(N3C[C@H](C)N[C@@H](C)C3)cc12 (single isomer, unassigned) [Compound 669] | A (A represents <100 nM) | < 0.1 |
| < 0.1 | < 0.1 | < 0.1 | 0.1 to 1 | 0.1 to 1 | CNC(=O)c1nc(-c2cc3cn(C)nc3cc2O)nc2ccc(N3C[C@H](C)N[C@@H](C)C3)cc12 (single isomer, unassigned) [Compound 676] | A (A represents <100 nM) | < 0.1 |
| < 0.1 | < 0.1 | < 0.1 | 0.1 to 1 | 0.1 to 1 | CNC(=O)c1nc(-c2cc3cn(C)nc3cc2O)nc2ccc(N3C[C@@H](C)N[C@H](C)C3)cc12 (single isomer, unassigned) [Compound 677] | B (B represents 100-1000 nM) | < 0.1 |
| < 0.1 | < 0.1 | < 0.1 | 0.1 to 1 | 0.1 to 1 | Cc1cn2cc(-c3ccc4cc(N5C[C@H](C)N[C@@H](C)C5)cc(F)c4n3)cc(F)c2n1 (single isomer, unassigned) [Compound 705, 2,2,2-trifluoroacetate] | A (A represents <100 nM) | 0.1 to 1 |
| < 0.1 | < 0.1 | < 0.1 | 0.1 to 1 | 0.1 to 1 | CNC(=O)c1nc(-c2cc3cn(C)nc3c(F)c2O)nc2ccc(N3CCNCC3)cc12 [Compound 506, 2-(7-fluoro-6-hydroxy-2-methylindazol-5-yl)-N-methyl-6-(piperazin-1-yl)quinazoline-4-carboxamide] | – | < 0.1 |
| 1 to 10 | 1 to 10 | 1 to 10 | > 10 | > 10 | CNc1nc(-c2cc3cn(C)nc3c(C)c2O)nc2ccc(N3CCNCC3)cc12 [Compound 508, 2,7-dimethyl-5-[4-(methylamino)-6-(piperazin-1-yl)quinazolin-2-yl]indazol-6-ol] | – | 1 to 10 |
| 1 to 10 | > 10 | > 10 | > 10 | > 10 | Cc1c(O)c(-c2nc(N(C)C)c3cc(N4CCNCC4)ccc3n2)cc2cn(C)nc12 [Compound 509, 5-[4-(dimethylamino)-6-(piperazin-1-yl)quinazolin-2-yl]-2,7-dimethylindazol-6-ol] | – | > 10 |
